Measured values reported in patent US11623931B2, “Bicyclic compounds for diagnosis and therapy” (AC IMMUNE SA, priority 2016, dated 2023).

Assays:
[1] = molecular target: T1, aSyn aggregates on PD sections (Homo sapiens, UniProt P37840); assay: Assay 1 (fluorescence based assay): direct staining of human Parkinson's disease brain sections; assay type: binding; design: key: − (No); +/− (very weak); + (weak); ++ (good); +++ (strong); details: staining intensity; compound 100 μM, frozen amygdala sections, PD Braak stage V-VI
T1 construct: 20 μm frozen sections from amygdala were purchased from an external provider (Tissue Solutions Ltd.); tissue Tissue Solutions Ltd; host or cells: human PD amygdala, frozen sections, Braak stage V-VI
From the text: Assay 1 (Fluorescence Based Assay):
(§1) Direct Staining of Compounds of this Invention to Human Parkinson's Disease Brain Sections
(§2) 20 μm frozen sections from amygdala were purchased from an external provider (Tissue Solutions Ltd.). Donors were diagnosed with PD, Braak stage V-VI (Braak et al., Neurobiol. Aging, 2003, 24, 197-211) and thus with confirmed aSyn pathology. PD donors, Braak stage V-VI with mixed pathology, containing aSyn aggregates as well as Aβ plaques, were also used in this assay. Sections were kept at −80° C. until start of the experiment.
(§3) Brain sections were encircled with pap pen liquid blocker to reduce the volume of solution for the different incubations. Sections were fixed for 15 min at 4° C. with 4% paraformaldehyde and washed three times for 5 minutes with PBS (phosphate buffered saline) at room temperature. Test compounds were incubated on the sections at 100 μM in 50% ethanol in water for 30 min at room temperature, followed by three washes of 5 minutes with PBS. Sections were then saturated and permeabilized in blocking buffer (PBS, 10% NGS, 0.25% Triton) for 1 hour at room temperature and then incubated for 2 hours at room temperature with the primary antibodies against aSyn: aSyn-211 (SantaCruz Biotechnology sc-12767) or aSyn-pS129 (Abcam AB51253), and primary antibody against AR, 4G8, (Covance, SIG-39220). All primary antibodies diluted 1/250 in PBS, 5% NGS, 0.25% Triton. After three washes in PBS, the sections were incubated for 30 minutes at room temperature with a secondary anti-mouse antibody labeled with AlexaFluor555 (Invitrogen A21422) or anti-rabbit antibody labeled with AlexaFluor555 (Invitrogen A21428) and further washed three times in PBS. To reduce auto-fluorescence of the tissue, the sections were incubated in a solution of 0.1% Sudan Black (Sigma 199664) in 70% ethanol for 15 min at room temperature, followed by four washes with PBS and mounted under cover slips using ProLong Gold Antifade reagent (Invitrogen P36930).
(§4) Sections were analyzed on the Nikon Eclipse Ti microscope to detect staining and imaged using Nikon DS-Fi2 camera and NIS-Element AR4.13.1 software.

[2] = system: Aβ plaques on PD sections with mixed pathology; assay: Assay 1 (fluorescence based assay): direct staining of PD brain sections with mixed pathology; assay type: binding, human; design: key: − (No); +/− (very weak); + (weak); ++ (good); +++ (strong); details: staining intensity; compound 100 μM, frozen amygdala sections, PD Braak stage V-VI with aSyn aggregates and Aβ plaques
Method: as §1, §2, §3, §4

Row | Compound | Staining of aSyn aggregates on PD sections [1] | Staining of Aβ plaques on PD sections with mixed pathology [2]
1 | F[C@H]1CCN(c2ccc(-c3ccc4cc(-c5cccnc5)sc4n3)cn2)C1 [Example 112] | + | ++
2 | Fc1nc(N2CCCC2)ccc1-c1nc2nc(-c3cn[nH]c3)ccc2s1 [Example 85] | +++ | −
3 | F[C@@H]1CCN(c2ccc(-c3ccc4cc(-c5cn[nH]c5)sc4n3)cn2)C1 [Example 114] | +++ | +++
4 | F[C@H]1CCCN(c2ccc(-c3nc4nc(-c5cn[nH]c5)ccc4s3)cn2)C1 [Example 83] | +++ | −
5 | Fc1ncccc1-c1ccc2sc(-c3ccc(N4CCCC4)nc3)nc2n1 [Example 108] | ++ | +/−
6 | F[C@H]1CCCN(c2ccc(-c3nc4nc(-c5cncs5)ccc4s3)cn2)C1 [Example 98] | + | +/−
7 | Cn1nccc1-c1ccc2sc(-c3ccc(N4CCCC4)nc3F)nc2n1 [Example 97] | + | +/−
8 | F[C@@H]1CCCN(c2ccc(-c3nc4ncc(N5CCOCC5)cc4s3)cn2)C1 [Example 123] | + | +
9 | Fc1nc(N2CCCC2)ccc1-c1nc2nc(-c3cc[nH]c3)ccc2s1 [Example 96] | ++ | +/−
10 | Cn1cc(-c2ccc3sc(-c4ccc(N5CCCC5)nc4F)nc3n2)cn1 [Example 86] | ++ | −
11 | N#Cc1ccc2sc(-c3ccc(N4CCCC4)nc3F)nc2n1 [Example 131] | ++ | +++
12 | O=C1NCCc2nc(-c3ccc(N4CC[C@H](F)C4)nc3)sc21 [Example 118] | + | +
13 | Cc1n[nH]c(C)c1-c1ccc2sc(-c3ccc(N4CCCC4)nc3F)nc2n1 [Example 88] | +++ | −
14 | F[C@H]1CCCN(c2ccc(-c3nc4ncc(-c5cccnc5)cc4s3)cn2)C1 [Example 101] | ++ | +
15 | O=C1CN(CCF)CCN1c1ccc2nc(-c3ccc(N4CCCC4)nc3)sc2c1 [Example 128] | ++ | ++
16 | Fc1ccc(-c2ccc3sc(-c4ccc(N5CCCC5)nc4)nc3n2)cn1 [Example 109] | ++ | +/−
17 | CNc1ccc(-c2cc3ccc(-c4ccc(N5CC[C@@H](F)C5)nc4)nc3s2)cc1F [Example 111] | +++ | +++
18 | c1cncc(-c2ccc3sc(-c4ccc(N5CCCC5)nc4)nc3n2)c1 [Example 89] | ++ | −
19 | F[C@H]1CCCN(c2ccc(-c3nc4nc(-n5ccnc5)ccc4s3)cn2)C1 [Example 132] | ++ | +/−
20 | O=C1NCCc2nc(N3CC[C@H](F)C3)sc21 [Example 119] | + | −
21 | CNc1ccc(-c2cc3ccc(-c4ccc(F)nc4)nc3s2)cc1F [Example 106] | +++ | +++
22 | O=C1c2sc(-c3ccc(N4CC[C@H](F)C4)nc3)nc2CCN1c1cccnc1 [Example 130] | ++ | +++
23 | Cn1cncc1-c1ccc2sc(-c3ccc(N4CCCC4)nc3F)nc2n1 [Example 94] | +++ | −
24 | Cn1cc(-c2ccc3sc(-c4ccc(N5CCC[C@H](F)C5)nc4)nc3n2)cn1 [Example 84] | ++ | +/−
25 | Nc1ccc(-c2cc3ccc(-c4ccc(F)nc4)nc3s2)cn1 [Example 105] | +++ | ++
26 | F[C@@H]1CCCN(c2ccc(-c3nc4nc(-c5cncs5)ccc4s3)cn2)C1 [Example 99] | ++ | +/−
27 | O=C1c2sc(-c3ccc(N4CC[C@@H](F)C4)nc3)nc2CCN1c1cccnc1 [Example 129] | ++ | +++
28 | Fc1nc(N2CCCC2)ccc1-c1nc2nc(-c3cccnc3)ccc2s1 [Example 87] | ++ | −
29 | F[C@H]1CCN(c2ccc(-c3nc4nc(-c5cccnc5)ccc4s3)cn2)C1 [Example 91] | ++ | −
